molecular target: Nicotinamide phosphoribosyltransferase (Homo sapiens, UniProt P43490); assay: Measurement of NamPT Inhibitory Ability IC50
Procedure: To test the effect of the compound prepared in each Example on the substrate decomposition rate (Vmax/min) mediated by NamPT enzyme, IC50 was calculated. In this experiment, the NamPT colorimetric assay kit (ab221819) produced by Abcam was used, and Graph prism software was used for IC50 calculation. PRPP, ATP, NMNAT1, NamPT recombinant proteins, and various concentrations of the compound of each Example (half-log step dilution from 100 μM) were added to nicotinamide to synthesize nicotinamide adenine dinucleotide (NAD) from the nicotinamide, and a total of 60 μL of the reaction solution was reacted at room temperature for 1 hour. WST-1 formazan converted by NAD generated by adding WST-1 was measured. The result of the reaction was obtained by the following formula by measuring absorbance using EnVision2105 (PerkinElmer) at 450 nm for 60 minutes at 2-minute intervals.

Nicotinamide phosphoribosyltransferase, sequence (P43490 whole entry): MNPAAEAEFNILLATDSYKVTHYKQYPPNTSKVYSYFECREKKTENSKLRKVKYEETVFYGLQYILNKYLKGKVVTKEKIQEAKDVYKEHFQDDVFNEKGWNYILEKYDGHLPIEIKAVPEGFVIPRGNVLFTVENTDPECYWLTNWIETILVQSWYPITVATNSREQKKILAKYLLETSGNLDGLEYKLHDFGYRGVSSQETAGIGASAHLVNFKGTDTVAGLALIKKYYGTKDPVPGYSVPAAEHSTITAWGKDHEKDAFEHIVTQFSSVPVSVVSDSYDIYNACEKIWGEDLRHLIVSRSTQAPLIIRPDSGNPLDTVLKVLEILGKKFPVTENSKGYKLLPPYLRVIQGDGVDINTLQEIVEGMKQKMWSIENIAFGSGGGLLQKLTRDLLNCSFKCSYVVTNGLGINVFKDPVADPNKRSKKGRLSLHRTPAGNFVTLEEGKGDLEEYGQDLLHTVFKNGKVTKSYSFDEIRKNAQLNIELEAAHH

IC50 [nM] | SMILES
< 50 | CC(C)c1ccc2nc(-c3ccc(CNC(=O)c4cnc5nccn5c4)cc3)oc2c1
< 50 | CS(=O)(=O)Nc1ccc2oc(-c3ccc(CNC(=O)c4cnc5nccn5c4)cc3)nc2c1 [US20260022122, Example 47]
< 50 | Cc1ccc2sc(-c3ccc(CNC(=O)c4cnc5nccn5c4)cc3)nc2c1 [US20260022122, Example 48]

From BindingDB's records for patent US20260022122 (Checkmate Therapeutics, 2026)
